The results in this text go back to US20250154170A1, “FUSED PYRIMIDINES AS KRAS INHIBITORS” (priority 2022, published 2025).

The target in one assay is K-Ras-wildtype (Homo sapiens, UniProt P01116). As to the kind of experiment: K-Ras-wildtype activation by SOS1 (wild-type KRAS activation by SOS1cat assay, HTRF). Type of assay: biochemical. Conditions: mean, SOS1cat mediated loading of wild-type GST-KRAS-GDP with fluorescent GTP analogue, read-out: K-Ras-wildtype activation by SOS1 IC50 - [mol/l] (mean). Here is the method:
(§1) Preparation of test compound dilutions. A 100-fold concentrated solution of the test compound (50 nL) in DMSO was transferred to microtiter test plates (384 or 1,536 wells, Greiner Bio-One, Germany) using either a Hummingbird liquid handler (Digilab, MA, USA) or an Echo acoustic system (Labcyte, CA, USA). Plates were sealed with adhesive foil or heat-sealed and stored at −20 C until use. Serial dilutions of test compounds were prepared in 100% DMSO using a Precision Pipetting System (BioTek, USA).
(§2) Measurement and evaluation of inhibition data, calculation of IC50 values. Homogeneous time-resolved fluorescence (HTRF) was measured with a PHERAstar reader (BMG, Germany) using the HTRF module (excitation: 337 nm; emission 1: 620 nm, emission 2: 665 nm). The ratio of the emissions at 665 and 620 nm was used as the specific signal for further evaluation. The data were normalized using the controls: DMSO=0% inhibition, inhibition control wells with inhibitor control solution=100% inhibition. Compounds were tested in duplicates at up to 11 concentrations (e.g. 20 μM, 5.7 μM, 1.6 μM, 0.47 μM, 0.13 μM, 38 nM, 11 nM, 3.1 nM, 0.89 nM, 0.25 nM and 0.073 nM). IC50 values were calculated using a four-parameter fit, with a commercial software package (Genedata Screener, Switzerland).
(§3) KRAS^G12C activation by SOS1^cat assay (“On-assay”). This assay quantifies SOS1^cat mediated loading of KRAS^G12C-GDP with a fluorescent GTP analogue. Detection of successful loading was achieved by measuring resonance energy transfer from anti-GST-terbium (FRET donor) bound to GST-KRAS^G12C to the loaded fluorescent GTP analogue (FRET acceptor). The fluorescent GTP analogue EDA-GTP-DY-647P1 [2′/3′-O-(2-aminoethyl-carbamoyl)guanosine-5′-triphosphate labelled with DY-647P1 (Dyomics GmbH, Germany)] was synthesized by Jena Bioscience (Germany) and supplied as a 1 mM aqueous solution. A KRAS^G12C working solution was prepared in assay buffer [10 mM HEPES pH 7.4 (AppliChem), 150 mM NaCl (Sigma), 5 mM MgCl2 (Sigma), 1 mM DTT (Thermo Fisher), 0.05% BSA Fraction V pH 7.0 (ICN Biomedicals), 0.0025% (v/v) Igepal (Sigma)] containing GST-KRAS^G12C (final concentration in assay 50 nM) and anti-GST-terbium (Cisbio, France) (final concentration in assay 1 nM). A SOS1^cat working solution was prepared in assay buffer containing SOS1^cat (final concentration 10 nM) and EDA-GTP-DY-647P1 (final concentration 100 nM). An inhibitor control solution was prepared in assay buffer containing EDA-GTP-DY-647P1 (final concentration 100 nM) without SOS1^cat. All steps of the assay were performed at 20° C. A volume of 3 μL of the KRAS^G12C working solution was added to all wells of the test plate using a Multidrop dispenser (Thermo LabSystems). After 15 min, 2 μL of the SOS1^ct working solution was added to all wells, except for the inhibitor control solution wells. After 30 min incubation, HTRF was measured.
(§4) G12D and Wild-type KRAS activation by SOS1cat assays. These assays quantify human SOS1^cat mediated loading of wild-type GST-KRAS^WT-GDP or GST-KRAS^G12D-GDP with a fluorescent GTP analogue. The assay was performed similarly to the KRAS^G12C activation by SOS1^cat assay with the following differences: final concentration of SOS1^cat of 60 nM and final incubation time before measurement of 10 min for KRAS^G12D assay, final concentration of SOS1^cat of 20 nM and final incubation time before measurement of 15 min for wild-type KRAS assay, respectively. GST-KRAS^G12C was replaced by GST-KRAS^WT or GST-KRAS^G12D, respectively, also at 50 nM final concentration.
Wild-type KRAS activation by SOS1^cat assay. This assay quantifies human SOS1^cat mediated loading of wild-type GST-KRAS-GDP with a fluorescent GTP analogue. The assay was performed similarly to the KRAS^G12D activation by SOS1^cat assay just by replacement of GST-KRAS^G12D by wild-type GST-KRAS while concentrations of all components and incubation times were the same.

A further assay concerns the target K-Ras G12D (Homo sapiens, UniProt P01116, G12D). As to the kind of experiment: K-Ras G12D activation by SOS1 (KRAS G12D activation by SOS1cat assay, HTRF). It is filed as biochemical. The settings on record: mean, SOS1cat mediated loading of GST-KRAS G12D-GDP with fluorescent GTP analogue, read-out: K-Ras G12D activation by SOS1 IC50 - [mol/l] (mean). How it is done:
as §1, §2, §3, §4
KRAS^G12D activation by SOS1^cat assay (“On-assay”). This assay quantifies SOS1^cat mediated loading of KRAS^G12D-GDP with a fluorescent GTP analogue. Detection of successful loading was achieved by measuring resonance energy transfer from anti-GST-terbium (FRET donor) bound to GST-KRAS^G12D to the loaded fluorescent GTP analogue (FRET acceptor).

Sequence of K-Ras G12D (P01116 1-188 isoform P01116-2 G12D): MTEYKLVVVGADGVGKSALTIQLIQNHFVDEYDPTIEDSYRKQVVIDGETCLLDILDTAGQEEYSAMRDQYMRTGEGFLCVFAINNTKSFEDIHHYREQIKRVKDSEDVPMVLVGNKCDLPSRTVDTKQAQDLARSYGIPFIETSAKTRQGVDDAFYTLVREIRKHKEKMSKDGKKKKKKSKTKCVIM
Sequence of K-Ras-wildtype (P01116 1-188 isoform P01116-2): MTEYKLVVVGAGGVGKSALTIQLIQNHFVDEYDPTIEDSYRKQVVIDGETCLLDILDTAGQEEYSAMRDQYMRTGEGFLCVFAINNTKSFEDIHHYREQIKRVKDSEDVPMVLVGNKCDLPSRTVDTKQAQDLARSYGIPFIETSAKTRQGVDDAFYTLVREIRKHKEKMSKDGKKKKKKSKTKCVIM

Turning to `C#Cc1c(Cl)ccc2cc(O)cc(Oc3nc4c(N5CC6CCC(C5)N6)nc(OC[C@@]56CCCN5C[C@H](F)C6)nc4s3)c12` [Example 23, 6-chloro-4-{[7-(3,8-diazabicyclo[3.2.1]octan-3-yl)-5-{[(2R,7aS)-2-fluorotetrahydro-1H-pyrrolizin-7a(5H)-yl]methoxy}[1,3]thiazolo[5,4-d]pyrimidin-2-yl]oxy}-5-ethynylnaphthalen-2-ol], the figures for the IC50 at K-Ras-wildtype and on K-Ras G12D were 95 nM and 4.9 nM, respectively.
The corresponding values for `C#Cc1c(F)ccc2cc(O)cc(Oc3nc4c(N5CC6CCC(C5)NC6)nc(OC[C@@]56CCCN5C[C@H](F)C6)nc4s3)c12` (single isomer, unassigned) [Example 20, 4-[(7-[(1R*,5R*)-3,6-diazabicyclo[3.2.2]nonan-3-yl]-5-{[(2R,7aS)-2-fluorotetrahydro-1H-pyrrolizin-7a(5H)-yl]methoxy}[1,3]thiazolo[5,4-d]pyrimidin-2-yl)oxy]-5-ethynyl-6-fluoronaphthalen-2-ol] are 405 nM and 8.11 nM.
The corresponding values for `Oc1cc(Nc2nc3c(N4CC5CCC(C4)N5)nc(OCC45CCCN4CCC5)nc3s2)c2ccccc2c1` [Example 7, 4-({7-(3,8-diazabicyclo[3.2.1]octan-3-yl)-5-[(tetrahydro-1H-pyrrolizin-7a(5H)-yl)methoxy][1,3]thiazolo[5,4-d]pyrimidin-2-yl}amino)naphthalen-2-ol] are ≥ 20000 nM and 3360 nM.
As to `C#Cc1c(F)ccc2cc(O)cc(Oc3nc4c(N5CC6COCC(C5)N6)nc(OC[C@@]56CCCN5C[C@H](F)C6)nc4s3)c12` [Example 19, 5-ethynyl-6-fluoro-4-{[5-{[(2R,7aS)-2-fluorotetrahydro-1H-pyrrolizin-7a(5H)-yl]methoxy}-7-(3-oxa-7,9-diazabicyclo[3.3.1]nonan-7-yl)[1,3]thiazolo[5,4-d]pyrimidin-2-yl]oxy}naphthalen-2-ol], the IC50 at K-Ras-wildtype worked out at 10.7 nM; on K-Ras G12D it was 14.3 nM.
The corresponding values for `C#Cc1c(F)ccc2cc(O)cc(Oc3nc4c(N5C[C@H]6CC(F)[C@@H](C5)N6)nc(OC[C@@]56CCCN5C[C@H](F)C6)nc4s3)c12` (single isomer, unassigned) [Example 25, 5-Ethynyl-6-fluoro-4-[(7-[(1R*,5R*)-6-fluoro-3,8-diazabicyclo[3.2.1]octan-3-yl]-5-{[(2R,7aS)-2-fluorotetrahydro-1H-pyrrolizin-7a(5H)-yl]methoxy}[1,3]thiazolo[5,4-d]pyrimidin-2-yl)oxy]naphthalen-2-ol] are 69.9 nM and 18.7 nM.
Regarding `Oc1cc(Oc2nc3c(N4CC5CCC(C4)N5)nc(OCC45CCCN4CCC5)nc3s2)c2ccccc2c1` [Example 1, 4-{[7-(3,8-diazabicyclo[3.2.1]octan-3-yl)-5-(tetrahydro-1H-pyrrolizin-7a(5H)-ylmethoxy)[1,3]thiazolo[5,4-d]pyrimidin-2-yl]oxy}-2-naphthol], the results for the IC50 at K-Ras-wildtype and on K-Ras G12D were ≥ 20000 nM and 1000 nM, respectively.
The corresponding values for `C#Cc1c(F)ccc2cc(O)cc(Oc3nc4c(N5C[C@H]6CC(F)[C@@H](C5)N6)nc(OC[C@@]56CCCN5C[C@H](F)C6)nc4s3)c12` (single isomer, unassigned) [Example 27, 5-Ethynyl-6-fluoro-4-[(7-[(1R*,5R*)-6-fluoro-3,8-diazabicyclo[3.2.1]octan-3-yl]-5-{[(2R,7aS)-2-fluorotetrahydro-1H-pyrrolizin-7a(5H)-yl]methoxy}[1,3]thiazolo[5,4-d]pyrimidin-2-yl)oxy]naphthalen-2-ol] are 91.2 nM and 23.7 nM.
As for `C#Cc1c(F)ccc2cc(O)cc(Oc3nc4c(N5CC6CCC(C5)NC6)nc(OC[C@@]56CCCN5C[C@H](F)C6)nc4s3)c12` (single isomer, unassigned) [Example 21, 4-[(7-[(1S*,5S*)-3,6-diazabicyclo[3.2.2]nonan-3-yl]-5-{[(2R,7aS)-2-fluorotetrahydro-1H-pyrrolizin-7a(5H)-yl]methoxy}[1,3]thiazolo[5,4-d]pyrimidin-2-yl)oxy]-5-ethynyl-6-fluoronaphthalen-2-ol], the values for the IC50 at K-Ras-wildtype and on K-Ras G12D were 182 nM and 219 nM, respectively.
